Inhibition zone and melting point data for one compound are collected here from patent US11958826B1, “6′-(2-chlorophenyl)-2′-ethoxy-3,4′-bipyridine-3′- carbonitrile as an antimicrobial compound” (KING FAISAL UNIVERSITY, priority 2023, dated 2024).

Molecules are shown by their SMILES.

One data set relates to Bacillus Cereus. Briefly: Agar plate disc-diffusion, antibacterial activity by inhibition zone. In kind it is cell-based. The following applies: Bacillus Cereus (Gram positive). The method, then:
(§1) The agar plate disc-diffusion method was applied. […] The discs were then placed onto the surface of agar plates (nutrient agar for bacteria and Sabouraud's dextrose agar for fungi) seeded with the test organism. Each plate contained 15 ml of the agar medium, previously seeded with 0.2 mL of the broth culture of each organism pregrown for 18 hours. The plates were incubated at 37° C. for 48 hours and 72 hours for fungi. The inhibition zones were measured in mm. Discs impregnated with DMSO were used as a control, and their inhibition zone was subtracted from the tested compound's actual inhibition zone.
(§2) The results of the antimicrobial testing can be observed in Tables 1 and 2, below, with ciprofloxacin serving as a reference.
For orientation: A growth-free zone around the sample is the usual read-out of agar diffusion tests.

The test system of a further data set is Escherichia coli. The description is as above. In kind it is cell-based. As to conditions: Escherichia coli (Gram negative). The method, then:
as §1, §2

For another data set, the system named is Pseudomonas aeruginosa. The description is as above. In kind it is cell-based. As to conditions: Pseudomonas aeruginosa (Gram negative). The method, then:
as §1, §2

A further data set has as its system Staphylococcus aureus. The description is as above. In kind it is cell-based. As to conditions: Staphylococcus aureus (Gram positive). The method, then:
as §1, §2

In another data set the test system is Aspergillus flavus. Briefly: Agar plate disc-diffusion, antifungal activity by inhibition zone. In kind it is cell-based. As for the experimental part:
as §1, §2

Data set [1] has as its system Chrysosporium keratinophilum. The description is as above. Type of data set: cell-based. The method, then:
as §1, §2

Where [2] appears, read: A = concentration of comp. = 10,000 μL.
Where [3] appears, read: B = concentration of comp. = 30.000 μL.
The mark [4] stands for this setting: C = concentration of comp. = 50,000 μL.

Take `CCOc1nc(-c2ccccc2Cl)cc(-c2cccnc2)c1C#N` [Compound 4, 6′-(2-chlorophenyl)-2′-ethoxy-3,4′-bipyridine-3′-carbonitrile]: the melting point (as a rule, the temperature of the solid-liquid transition) fell in the range of 156 to 158 °C. This compound also displayed an inhibition zone in the data set with Bacillus Cereus (setting [2]) of 25 mm. In the data set on Bacillus Cereus (setting [3]), the inhibition zone stood at 27 mm. The inhibition zone in the data set on Bacillus Cereus (setting [4]) was determined as 39 mm. In the data set on Escherichia coli (setting [2]), this compound registered an inhibition zone of 26 mm. In the data set on Escherichia coli (setting [3]), this compound returned an inhibition zone of 28 mm. The inhibition zone with Escherichia coli (setting [4]) was 40 mm. The compound also came in with an inhibition zone in the data set on Pseudomonas aeruginosa (setting [2]) of 25 mm. Besides, in the data set with Pseudomonas aeruginosa (setting [3]), the inhibition zone is 27 mm. The compound also registered an inhibition zone with Pseudomonas aeruginosa (setting [4]) of 38 mm. The compound further gave an inhibition zone with Staphylococcus aureus (setting [2]) of 18 mm. In addition, in the data set with Staphylococcus aureus (setting [3]), the inhibition zone came to 24 mm. The inhibition zone in the data set with Staphylococcus aureus (setting [4]) turned out to be 36 mm. The compound further registered an inhibition zone in the data set with Aspergillus flavus (setting [2]) of 20 mm. The compound also displayed an inhibition zone in the data set with Aspergillus flavus (setting [3]) of 24 mm. Further, in the data set on Aspergillus flavus (setting [4]), the inhibition zone is reported as 35 mm. Also, the inhibition zone in data set [1] (setting [2]) worked out at 25 mm. Besides, the inhibition zone in data set [1] (setting [3]) is reported as 27 mm. Also, in data set [1] (setting [4]), the inhibition zone stood at 44 mm.
